# Patent US9462810B2, “Method for inactivating viruses with slightly acidic arginine” (AJINOMOTO CO., INC., priority 2007, dated 2016)
# Like-named read-outs stand apart in the source and are kept apart here.
# Key:
# [1] = system: herpes simplex viruses type 1, strain F (HSV-1); assay: HSV-1 inactivation by buffer solutions on ice for one hour, residual titer by plaque assay on Vero cells; assay type: cell-based
# [2] = system: Influenza A viruses/Aichi; assay type: cell-based, Influenza A virus
# [3] = system: influenza virus A/Aichi (H3N2); assay type: cell-based; settings: 0.15M, two minutes
# BVDV = settings: 16 mM, 30° C., 10 hours, pH 4.5; cited from earlier work
# Sendai viruses = assay: Sendai virus inactivation by buffer solutions on ice for one hour, residual titer by plaque assay on Vero cells; assay type: cell-based; settings: 0.7M, pH 4.0, on ice one hour
# [4] = Concentration 0.07 M, pH 4.0 (Example 4)
# [5] = Concentration 0.14 M, pH 4.0 (Example 4)
# [6] = Concentration 0.21 M, pH 4.0 (Example 4)
# [7] = Concentration 0.28 M, pH 4.0 (Example 4)
Structure (SMILES),"Virus Inactivating Efficiency (LRV) ([3]; pH 4.0, 21.6° C.)","Virus Inactivating Efficiency (LRV) ([3]; pH 4.2, 21.6° C.)","Virus Inactivating Efficiency (LRV) ([1]; 0.35M, pH 4.0 (Example 3))","Virus Inactivating Efficiency (LRV) [1, 4]","Virus Inactivating Efficiency (LRV) [1, 5]","Virus Inactivating Efficiency (LRV) [1, 6]","Virus Inactivating Efficiency (LRV) [1, 7]",further results
"O=C([O-])CC(O)(CC(=O)[O-])C(=O)[O-].[Na+].[Na+].[Na+] [sodium citrate, reference compound]",2.66,2.95,,,,,,"Virus Inactivating Efficiency (LRV) ([1]; 0.1M, pH 3.5, on ice one hour (Example 1)): >5.7; Virus Inactivating Efficiency (LRV) ([1]; 0.1M, pH 3.5, on ice one hour (Example 1), listed as citrate buffer solution): > 5.7; Virus Inactivating Efficiency (LRV) ([1]; 0.1M, pH 4.0, on ice one hour (Example 1)): 1.5; Virus Inactivating Efficiency (LRV) ([1]; 0.1M, pH 4.3, on ice one hour (Example 1)): 0.1; Virus Inactivating Efficiency (LRV) ([1]; 0.1M, pH 4.3, on ice one hour (Example 1), listed as citrate buffer solution): the inactivation did not take place; Virus Inactivating Efficiency (LRV) ([2]; 0.1M, pH 3.5, on ice one hour): 2.1; Virus Inactivating Efficiency (LRV) ([2]; 0.1M, pH 4.0, on ice one hour): 1.5; Virus Inactivating Efficiency (LRV) ([2]; 0.1M, pH 4.3, on ice one hour): 1.3; Virus Inactivating Efficiency (LRV) ([3]; pH 3.8, 21.6° C.): 2.74; maximum LRV ([3]; within the pH range of 3.8 to 4.2, 21.6° C.): ≤ 2.95"
CCCCCCCC(=O)O [caprylic acid],,,,,,,,titer of BVDV decreased to (BVDV): 1/10000
CCCC(=O)N[C@@H](CCCNC(=N)N)C(=O)O [Nα-butyroyl-L-arginine],4.05,,>5.5,0.7,2.2,4.3,6.0,"Virus Inactivating Efficiency (LRV) ([2]; 0.7M, pH 4.0, on ice one hour): 3.7; Virus Inactivating Efficiency (LRV) (Sendai viruses): >3.7"
Cl.N=C(N)NCCC[C@H](N)C(=O)O [arginine hydrochloride],3.87,,4.2,0.5,1.1,2.2,3.1,"Virus Inactivating Efficiency (LRV) ([1]; Concentration 0.35 M, pH 4.0 (Example 4)): 4.5; Virus Inactivating Efficiency (LRV) ([2]; 0.7M, 20 mM sodium acetate, pH 4.0, on ice one hour): 3.7; Virus Inactivating Efficiency (LRV) ([2]; 1M, pH 4.3, on ice one hour): 2.4"
"O=C1CC[C@@H](C(=O)O)N1 [PCA, pyrrolidone carboxylic acid]",4.05,2.95,,,,,,
